The record followed here is the NIST ThermoML archive (doi:10.1016/j.jct.2006.10.009).

± gives the expanded uncertainty stated by the source.

Assay in one data set: not given
To be noted: Crystal; DTA.
As for `CCCCCCCCCC[N+](C)(C)CCCCCCCCCC.O=[N+]([O-])[O-]` [Didecyldimethylammonium nitrate], the Normal melting temperature was 31.7 ± 4 °C.

The same data set, now with this note: Crystal; visual observation.
In the case of `CCCCO` [butan-1-ol], the Normal melting temperature was -89.4 ± 4 °C.
In the case of `CCCCCCCCCCO` [decan-1-ol], the Normal melting temperature stood at 5.1 ± 4 °C.
Turning to `CCCCCCCCCCCCCCCC` [hexadecane], the Normal melting temperature came to 18.0 ± 4 °C.
As for `CCCCCC` [hexane], the Normal melting temperature is -94.3 ± 4 °C.
Take `CCCCCCCCO` [octan-1-ol]: the Normal melting temperature is -14.9 ± 4 °C.
Consider `CCCO` [propan-1-ol], for which the Normal melting temperature was -126.4 ± 4 °C.
Regarding `CCCc1ccccc1` [propylbenzene], the Normal melting temperature is -99.0 ± 4 °C.
For the molecule `Cc1ccccc1` [toluene], the Normal melting temperature was -95.0 ± 4 °C.

The nature of the next data set: Molar enthalpy of transition or fusion. To be noted: Crystal; DSC.
As for `CCCCCCCCCC[N+](C)(C)CCCCCCCCCC.O=[N+]([O-])[O-]` [Didecyldimethylammonium nitrate], the “Molar enthalpy of transition or fusion” value worked out at 2.36 ± 0.086 kcal/mol.
